In series [1] the test system is thyroid gland cancer cell line TT having RET activating mutation (C634W). In words: Cell growth inhibitory activity, thyroid gland cancer cell line TT. Type of series: cell-based. The conditions noted are these: Homo sapiens, 216 h; TT cells, 9 days, CellTiter-Glo. On the procedure: The cell growth inhibitory activity of the test compound on the thyroid gland cancer cell line TT having RET activating mutation (C634W) (Biochemical and Biophysical Research Communications. 1995 Feb. 27 (207), 1022-1028) was measured.
TT cells were seeded on a 96-well plate at a cell density of 5,000 cells per well, and were then cultured at 37° C. in the presence of 5% CO2 overnight in an F-12K nutrient mixture medium containing 10% FBS. Thereafter, the compound was diluted, and then added to the 96-well plate. As a negative control, dimethyl sulfoxide (hereinafter referred to as DMSO) was added. The obtained mixture was cultured at 37° C. in the presence of 5% CO2 for 9 days, and thereafter, a cell count measuring reagent CellTiter-Glo® Luminescent Cell Viability Assay was added to the culture, followed by stirring the mixture. Thereafter, using a luminescence measurement device Envision (Perkin Elmer), the luminescence intensity was measured. The measurement value of a well to which only the medium had been added was define as a survival rate of 0%, and the measurement value of a well to which DMSO had been added was defined as a survival rate of 100%. The survival rate of the TT cells in the presence of each concentration of the test compound was calculated.
For orientation: Cellular ATP, detected with luciferase, serves as a proxy for viable cell number.

The target in the next series is KDR kinase (Homo sapiens (Human), UniProt P35968). As to the kind of experiment: Evaluation of KDR kinase inhibiting activity (cell system), HUVEC, AlphaLISA. Type of series: cell-based. How it is done: HUVEC cells were seeded on a plate at a cell density of 1500 cells per well, and then cultured overnight. The test compound (10 uM, 2.5 uM, 625 nM, 156 nM, […], 10 nM, 2.5 nM, or 0.6 nM) was added to each well, followed by culturing the obtained mixture for 2 hours. Thereafter, VEGF165 (Peprotech, #100-20) was added to the culture at a final concentration of 50 ng/ml, and the obtained mixture was then reacted at 37° C. for 5 minutes. Thereafter, the resulting cells were lysed with 50 ul of Lysis buffer included in AlphaLISA SureFire Ultra (Perkin Elmer, # ALSU-PVGFR-A500), and Acceptor beads and Donor beads were then added to 10 ul of the cell lysate according to the instruction manual included with the aforementioned kit. The mixture thus obtained was reacted at room temperature overnight, and thereafter, a KDR kinase inhibiting activity rate was measured using Envision (Perkin Elmer).
The value for a well to which only the Lysis buffer had been added was subtracted as a background from all of the values. Thereafter, the value for a well to which […] had been added and the test compound had not been added was defined as a KDR kinase activity of 100%, and the obtained value was corrected.
For orientation: Bead proximity is the source of the signal in Alpha formats.

For series [2], the target named is RET phosphorylation of the tyrosine at position 905 (pRET(Y905)) (Homo sapiens (Human), UniProt P07949+Q16204). As to the kind of experiment: RET phosphorylation (Y905) in LC-2/ad xenograft tumors, Western blotting. It counts as in vivo, NOG mice. To be noted: tumor collected two and six hours after final administration (FIG. 2). The source says: (§1) Cells of a non-small cell lung cancer cell line LC-2/ad (RIKEN, J Thorac Oncol. 2012 December, 7(12), 1872-6) suspended in DPBS (Gibco, #14190) were mixed with an equal amount of Corning Matrigel Basement Membrane Matrix (Corning, #354234), and the obtained mixture was then subcutaneously transplanted into NOG mice to form a tumor. (The NOG mice were acclimatized after they had been received from In Vivo Science Inc., and thereafter, the cells were transplanted into the mice when the mice were 9 week olds. As feedstuff, FR-2 (manufactured by Funabashi Farm Co., Ltd.) was used.) After the tumor had reached a size of 100 to 200 mm^3, the mice were randomized based on tumor diameter, and oral administration of the compound of Example 4 (hereinafter referred to as Compound A) was then initiated. As a solvent for dissolving Compound A, 1% hydroxypropyl methyl cellulose was used. […] Moreover, the tumor was collected (no administration was carried out on the Vehicle group) two hours and six hours after the final administration of Compound A, and the RET phosphorylation of the tyrosine at position 905 used as an indicator of RET kinase activity (pRET(Y905), Nature Medicine, 18, 375-377 (2012)) was then detected by the Western blotting method.
A general note: In western blotting, separated proteins are transferred to a membrane and probed.

Series [3] relates to non-small cell lung cancer cell line LC-2/ad xenograft. In words: Antitumor activity in xenograft model established with LC-2/ad. The conditions noted are these: oral. It counts as in vivo, NOG mice.
Excerpt: as §1

Series [4] relates to non-small cell lung cancer cell line LC-2/ad having a CCDC6-RET fusion gene. In words: Cell growth inhibitory activity, non-small cell lung cancer cell line LC-2/ad. It counts as cell-based. The conditions noted are these: Homo sapiens, 216 h; LC-2/ad cells, 9 days, CellTiter-Glo. How it is done: The cell growth inhibitory activity of the test compound on the non-small cell lung cancer cell line LC-2/ad having a CCDC6-RET fusion gene (RIKEN, J Thorac Oncol. 2012 December, 7(12), 1872-6) was measured.
LC-2/ad cells were seeded on a 96-well plate at a cell density of 5,000 cells per well, and then cultured at 37° C. in the presence of 5% CO2 overnight in a medium prepared by mixing RPMI-1640 containing 15% FBS and 25 mM HEPES with Ham's F12 Mixture at a mixing ratio of 1:1. Thereafter, the test compound was diluted, and then added to the 96-well plate. As a negative control, dimethyl sulfoxide (hereinafter referred to as DMSO) was added. The obtained mixture was cultured at 37° C. in the presence of 5% CO2 for 9 days, and thereafter, a cell count measuring reagent CellTiter-Glo® Luminescent Cell Viability Assay (Promega, # G7571) was added to the culture, followed by stirring the mixture. Thereafter, using a luminescence measurement device Envision, the luminescence intensity was measured. The measurement value of a well to which only the medium had been added was define as a survival rate of 0%, and the measurement value of a well to which DMSO had been added was defined as a survival rate of 100%. The survival rate of the LC-2/ad cells in the presence of each concentration of the test compound was calculated.

SMILES strings stand for the structures. Where two headings read alike, the source gives them in different places.

KDR kinase, sequence (P35968 20-1356): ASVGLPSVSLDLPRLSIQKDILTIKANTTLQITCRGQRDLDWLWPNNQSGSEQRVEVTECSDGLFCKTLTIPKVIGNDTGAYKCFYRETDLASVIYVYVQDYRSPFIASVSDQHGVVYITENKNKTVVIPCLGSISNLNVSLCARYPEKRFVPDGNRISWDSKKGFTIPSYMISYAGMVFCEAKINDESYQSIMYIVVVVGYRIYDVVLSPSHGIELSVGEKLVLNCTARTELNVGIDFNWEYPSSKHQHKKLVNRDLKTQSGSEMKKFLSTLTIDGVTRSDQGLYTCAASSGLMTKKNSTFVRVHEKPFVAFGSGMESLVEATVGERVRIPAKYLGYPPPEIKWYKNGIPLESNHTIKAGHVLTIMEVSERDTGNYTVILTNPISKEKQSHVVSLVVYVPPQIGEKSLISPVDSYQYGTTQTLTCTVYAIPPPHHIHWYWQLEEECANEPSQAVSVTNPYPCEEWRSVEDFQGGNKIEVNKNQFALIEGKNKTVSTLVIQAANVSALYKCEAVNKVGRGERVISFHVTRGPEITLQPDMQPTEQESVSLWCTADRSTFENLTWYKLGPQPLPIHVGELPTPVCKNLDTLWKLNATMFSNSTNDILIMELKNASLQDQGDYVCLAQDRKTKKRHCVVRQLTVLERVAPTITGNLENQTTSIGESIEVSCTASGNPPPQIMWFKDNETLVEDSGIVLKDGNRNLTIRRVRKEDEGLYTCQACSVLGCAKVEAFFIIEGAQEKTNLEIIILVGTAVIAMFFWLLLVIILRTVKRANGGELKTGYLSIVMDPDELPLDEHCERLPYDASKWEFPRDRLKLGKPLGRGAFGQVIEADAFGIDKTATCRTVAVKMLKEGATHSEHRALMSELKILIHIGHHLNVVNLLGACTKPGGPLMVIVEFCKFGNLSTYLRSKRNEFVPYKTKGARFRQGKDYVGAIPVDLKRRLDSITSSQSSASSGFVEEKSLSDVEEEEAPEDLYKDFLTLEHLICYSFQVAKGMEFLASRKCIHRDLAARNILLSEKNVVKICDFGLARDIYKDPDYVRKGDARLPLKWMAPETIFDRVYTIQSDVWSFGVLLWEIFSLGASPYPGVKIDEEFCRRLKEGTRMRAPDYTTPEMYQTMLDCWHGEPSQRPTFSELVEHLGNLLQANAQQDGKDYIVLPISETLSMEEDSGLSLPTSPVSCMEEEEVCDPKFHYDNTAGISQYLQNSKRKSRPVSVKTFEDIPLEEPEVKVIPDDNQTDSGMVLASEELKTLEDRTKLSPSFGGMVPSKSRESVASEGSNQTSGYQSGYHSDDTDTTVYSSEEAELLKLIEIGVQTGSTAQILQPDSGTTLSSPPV
RET phosphorylation of the tyrosine at position 905 (pRET(Y905)), sequence (P07949 other isoform, or with tags, fused parts or gaps): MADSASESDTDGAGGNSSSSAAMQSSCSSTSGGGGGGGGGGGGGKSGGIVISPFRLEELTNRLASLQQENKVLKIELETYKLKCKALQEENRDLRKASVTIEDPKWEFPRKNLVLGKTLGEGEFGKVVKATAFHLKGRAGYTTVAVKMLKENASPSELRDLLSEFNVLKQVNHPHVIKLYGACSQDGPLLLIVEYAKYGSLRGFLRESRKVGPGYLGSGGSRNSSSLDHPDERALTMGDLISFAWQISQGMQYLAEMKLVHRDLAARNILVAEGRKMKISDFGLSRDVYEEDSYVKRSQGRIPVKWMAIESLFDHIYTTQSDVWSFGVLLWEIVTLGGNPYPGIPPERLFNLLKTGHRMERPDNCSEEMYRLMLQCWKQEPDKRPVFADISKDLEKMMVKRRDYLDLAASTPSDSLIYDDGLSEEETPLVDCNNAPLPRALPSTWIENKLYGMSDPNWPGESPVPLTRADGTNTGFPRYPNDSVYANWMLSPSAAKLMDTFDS

The term IC50 denotes the concentration needed to halve the response being measured. As for `COc1cc2cc(-c3ccc(CC(=O)Nc4cc(C(C)(C)C(F)(F)F)no4)cn3)cnc2cc1OC` [Example 4, 2-[6-(6,7-Dimethoxyquinolin-3-yl)pyridin-3-yl]-N-[3-(1,1,1-trifluoro-2-methylpropan-2-yl)-1,2-oxazol-5-yl]acetamide Methanesulfonate], the IC50 in series [1] is 6 nM; at KDR kinase (KDR, HUVEC cells, VEGF165 50 ng/ml, compound 2 hours, read-out: IC50) it was 298 nM; on KDR kinase (cell system, Form: Mesylate, read-out: IC50 (nM) KDR), 287 nM; in series [4], 49 nM. Besides, the “suppression of the phosphorylation of Y905 (pRET(Y905))” value in series [2] is given as “dose-dependent suppression of the phosphorylation of Y905”. Also, the tumor regression result in series [3] (3 mg/kg or 1 mg/kg three times a day for 9 days (FIG. 1)) is on record as “dose-dependent tumor regression”. Further, in series [3] (3 mg/kg or 1 mg/kg three times a day for 9 days, compared to Vehicle group), the “reduction in body weight” value is given as “no significant reduction in body weight”.

These data come from patent US10851092B2, “Pyridine compound” (Daiichi Sankyo Company, Limited, priority 2016, dated 2020).
